Assay results taken from publication PMC11591946, “Exploring the Potential of Biomimetic Peptides in Targeting Fibrillar and Filamentous Alpha-Synuclein—An In Silico and Experimental Approach to Parkinson’s Disease” (Biomimetics, 2024).
Where no end group is shown, it is not given here.

How the values were obtained:
[1] = target: T1, ASyn preformed fibrils (Homo sapiens, UniProt P37840); assay: Thioflavin-T (ThT) assay; type: biochemical; conditions: 20 μM ASyn preformed fibrils + 20 μM peptide in PBS, 70 μM ThT; for reduction in ThT fluorescence intensity: excitation 440 nm, over the course of 46 h
T1 construct: purchased StressMarq
Protocol: Thioflavin T assay was conducted to assess the effect of five peptides (PYYYWKELAQM; PYYYWKDPNGS; EQALMPEGMGLEDPNGS; ELAQMPYYYWKDPNGS; ELAQMPWIWYWKDPNGS) on ASyn preformed fibrils (StressMarq). […] [75]. The samples were prepared by incubating 20 μM of ASyn diluted in PBS buffer with 20 μM of each peptide. To each sample, 70 μM ThT dye diluted in deionized water was added. The prepared solutions were then transferred into quartz cuvettes, and the emission spectra at different time intervals were recorded. Samples were excited at 440 nm, and emission spectra were recorded between 460 nm to 550 nm at a slit of 3 nm.

[2] = DPPH radical scavenging antioxidant assay; type: biochemical; conditions: colorimetric DPPH kit; at the highest concentrations (2, 10, 20, 40 µM tested)
Protocol: To investigate the antioxidant activity of the five peptides (PYYYWKELAQM; PYYYWKDPNGS; EQALMPEGMGLEDPNGS; ELAQMPYYYWKDPNGS; ELAQMPWIWYWKDPNGS), we conducted a colorimetric DPPH (2,2-diphenyl-1-picrylhydrazyl) radical scavenging assay using an antioxidant assay kit (AbCam, USA). In general, the protocol from the assay kit was followed to determine the antioxidant activity. Four different concentrations of each of the peptides were utilized (2 µM, 10 µM, 20 µM, and 40 µM). A standard curve was generated using Trolox, and then the activities of each of the peptides were compared by calculating the inhibition ratio.

Q: With ELAQMPYYYWKDPNGS [ELAQMPYYYWKDPNGS] as the sequence, how does the “reduction in ThT fluorescence intensity” value [1] read?
A: 27%

Q: Which “reduction in ThT fluorescence intensity” value [1] does the source give for PYYYWKDPNGS [PYYYWKDPNGS] here?
A: 46.2%

Q: With EQALMPWIWYWKDPNGS [EQALMPWIWYWKDPNGS] as the sequence, how does the “reduction in ThT fluorescence intensity at 48 h” value ([1]; at 48 h) read?
A: 42%

Q: What about the “DPPH radical scavenging activity in comparison to Trolox (standard)” value [2] of the same sequence?
A: 19%

Q: Which “reduction in ThT fluorescence intensity” value [1] does the source give for “ELAQMGPEGPMGLEDPNGS [ELAQMGPEGPMGLEDPNGS]” here?
A: 32%
